Data on 22 compounds can be found in patent US12472168B2, “Ring-fused thiazolino 2-pyridones, methods for preparation thereof and their use in the treatment and/or prevention of a disease involving gram-positive bacteria” (Quretech Bio AB, priority 2017, dated 2025).

Test [1] concerns MRSA. Kind of test: Minimum Inhibitory Concentration (MIC) and Minimum Bactericidal Concentration (MBC) assays. As to conditions: compound alone, no antibiotic; for MIC: overnight (18 hrs). It is filed as cell-based, Methicillin-resistant Staphylococcus aureus. The protocol:
(§1) MIC was defined by the lowest concentration of the test compound that inhibits visible growth of pathogen of interest. The optical density of the pathogen of interest culture was measured by OD600.
(§2) MBC was determined colony forming units (CFUs) enumeration by serially diluting and plating bacterial cultures on BHI plates.
(§3) Thus, no antibiotic was used in Table 2.

The test system of test [2] is E. faecalis. Kind of test: MIC and MBC assays. The test is classed as cell-based. As to conditions: Enterococcus faecalis, compound alone, no antibiotic; for MIC: overnight (18 hrs). As to the method: as §1, §2, §3
For test [3], the system named is Streptococcus. Kind of test: MIC and MBC assays. The test is classed as cell-based. As to conditions: compound alone, no antibiotic. The protocol:
as §1, §2, §3

Test [4] deals with Strep. pyogenes. Kind of test: MIC and MBC assays. The test is classed as cell-based. Particulars: Streptococcus pyogenes, compound alone, no antibiotic. As to the method:
(§4) […]. MIC was defined by the lowest concentration of the test compound that inhibits visible growth of pathogen of interest. The optical density of the pathogen of interest culture was measured by OD600.
(§5) […]. MBC was determined colony forming units (CFUs) enumeration by serially diluting and plating bacterial cultures on BHI plates.
(§6) . Thus, no antibiotic was used in Table 2.

The subject of test [5] is Staph. aureus. Description: MIC and MBC assays. It is filed as cell-based. Particulars: Staphylococcus aureus, compound alone, no antibiotic; for MIC: overnight (18 hrs). The protocol:
as §4, §5, §6

[6] abbreviates: Staphylococcus aureus, 18 h, read-out: MIC.

≈ marks a conversion by molar mass, not a printed value. Counter-ions that a name gives are not always drawn. Like-named read-outs stand apart in the source and are kept apart here.

With `CCCCOc1ccc(-c2sc3c(C4CC4)c(Cc4cccc5ccccc45)cc(=O)n3c2C(=O)O)cc1` [Example 13, 8-(p-Butoxyphenyl)-5-cyclopropyl-4-[(1-naphthyl)methyl]-2-oxo-7-thia-1-azabicyclo[4.3.0]nona-3,5,8-triene-9-carboxylic acid], the minimum inhibitory concentration (MIC) in test [1] (setting [6]) came to 31 µM (≈ 16.2 µg/mL); in test [2], 300 µM (≈ 157 µg/mL). Further, the figures for the MBC in test [1] (Staphylococcus aureus) and in test [3] were 25 µM (≈ 13.1 µg/mL) and 3 µM (≈ 1.57 µg/mL), respectively.

Regarding `COCCOc1ccc(-c2sc3c(OC)c(Cc4cccc5ccccc45)cc(=O)n3c2C(=O)O)cc1C` [Example 17, 5-Methoxy-8-[4-(2-methoxyethoxy)-3-methyl-phenyl]-4-[(1-naphthyl)methyl]-2-oxo-7-thia-1-azabicyclo[4.3.0]nona-3,5,8-triene-9-carboxylic acid], the MIC in test [1] (setting [6]) is more than 25 µM.

`COCCOc1ccc(-c2sc3c(C4CC4)c(Cc4cccc5ccccc45)cc(=O)n3c2C(=O)O)cc1C` [Example 18, 5-Cyclopropyl-8-[4-(2-methoxyethoxy)-3-methyl-phenyl]-4-[(1-naphthyl)methyl]-2-oxo-7-thia-1-azabicyclo[4.3.0]nona-3,5,8-triene-9-carboxylic acid]: the MIC in test [1] (setting [6]) was more than 25 µM.

As for `CCCCCCn1cc(-c2sc3c(OC)c(Cc4cccc5ccccc45)cc(=O)n3c2C(=O)O)nn1` [Example 15, 8-(1-Hexyl-1H-1,2,3-triazol-4-yl)-5-methoxy-4-[(1-naphthyl)methyl]-2-oxo-7-thia-1-azabicyclo[4.3.0]nona-3,5,8-triene-9-carboxylic acid], the MIC in test [1] (setting [6]) is 100 µM (≈ 51.7 µg/mL).

For `O=C(O)c1c(-c2ccoc2)sc2c(C3CC3)c(Cc3cccc4ccccc34)cc(=O)n12` [Example 36, 5-Cyclopropyl-8-(3-furyl)-4-[(1-naphthyl)methyl]-2-oxo-7-thia-1-azabicyclo[4.3.0]nona-3,5,8-triene-9-carboxylic acid], in test [4], the MBC turned out to be 25 µM (≈ 11 µg/mL).

Turning to `O=C(O)c1c(-c2ccc3c(c2)OCCO3)sc2c(C3CC3)c(Cc3cccc4ccccc34)cc(=O)n12` [Example 33, 5-Cyclopropyl-8-(1,4-dioxa-2,3-dihydronaphth-6-yl)-4-[(1-naphthyl)methyl]-2-oxo-7-thia-1-azabicyclo[4.3.0]nona-3,5,8-triene-9-carboxylic acid], the MBC in test [5] is 400 µM (≈ 204 µg/mL); in test [4] it was 20 µM (≈ 10.2 µg/mL). The same compound showed an MIC in test [2] of more than 400 µM.

Regarding `Cc1ccc(-c2sc3c(C4CC4)c(Cc4cccc5ccccc45)cc(=O)n3c2C(=O)O)cc1` [Example 31, 5-Cyclopropyl-4-[(1-naphthyl)methyl]-2-oxo-8-(p-tolyl)-7-thia-1-azabicyclo[4.3.0]nona-3,5,8-triene-9-carboxylic acid], the MIC in test [1] (setting [6]) and in test [5] was 50 µM (≈ 23.3 µg/mL) each time. Besides, the values for the MBC in test [1] (Staphylococcus aureus), in test [5] and in test [4] were 100 µM (≈ 46.6 µg/mL), 100 µM (≈ 46.6 µg/mL) and 50 µM (≈ 23.3 µg/mL), respectively.

Regarding `CCOc1ccc(-c2sc3c(C4CC4)c(Cc4cccc5ccccc45)cc(=O)n3c2C(=O)O)cc1C` [Example 5, 5-Cyclopropyl-8-(4-ethoxy-3-methyl-phenyl)-4-[(1-naphthyl)methyl]-2-oxo-7-thia-1-azabicyclo[4.3.0]nona-3,5,8-triene-9-carboxylic acid], the MIC amounted to 150 µM (≈ 76.4 µg/mL) in test [1] (setting [6]) and 250 µM (≈ 127 µg/mL) in test [2]. This compound showed an MBC in test [3] of 10 µM (≈ 5.1 µg/mL).

Consider `CCCCCCCOc1ccc(-c2sc3c(C4CC4)c(Cc4cccc5ccccc45)cc(=O)n3c2C(=O)O)cc1C` [Example 3, 5-Cyclopropyl-8-[4-(heptyloxy)-3-methyl-phenyl] 4-[(1-naphthyl)methyl]-2-oxo-7-thia-1-azabicyclo[4.3.0]nona-3,5,8-triene-9-carboxylic acid], for which the MIC in test [1] (setting [6]) is 167 µM (≈ 96.8 µg/mL); in test [2], 183 µM (≈ 106 µg/mL). Also, the MBC was found to be 100 µM (≈ 58 µg/mL) in test [2] and 50 µM (≈ 29 µg/mL) in test [3].

Take `O=C(O)c1c(-c2ccccc2)sc2c(C3CC3)c(Cc3cccc4ccccc34)cc(=O)n12` [Example 29, 5-Cyclopropyl-4-[(1-naphthyl)methyl]-2-oxo-8-phenyl-7-thia-1-azabicyclo[4.3.0]nona-3,5,8-triene-9-carboxylic acid]: the results for the MIC in test [1] (setting [6]), in test [5] and in test [4] (overnight (18 hrs)) were 250 µM (≈ 113 µg/mL), 100 µM (≈ 45.2 µg/mL) and 25 µM (≈ 11.3 µg/mL), respectively. Besides, the MBC amounted to 200 µM (≈ 90.3 µg/mL) in test [1] (Staphylococcus aureus), 200 µM (≈ 90.3 µg/mL) in test [5] and 25 µM (≈ 11.3 µg/mL) in test [4].

In the case of `COc1c(Cc2cccc3ccccc23)cc(=O)n2c(C(=O)O)c(-c3ccc(OCC4CC4)c(C)c3)sc12` [Example 26, 8-[4-(Cyclopropylmethoxy)-3-methyl-phenyl]-5-methoxy-4-[(1-naphthyl)methyl]-2-oxo-7-thia-1-azabicyclo[4.3.0]nona-3,5,8-triene-9-carboxylic acid], the figures for the MIC in test [1] (setting [6]) and in test [2] were 12 µM (≈ 6.31 µg/mL) and more than 100 µM, respectively.

As to `C#CCCCCOc1ccc(-c2sc3c(OC)c(Cc4cccc5ccccc45)cc(=O)n3c2C(=O)O)cc1C` [Example 22, 8-[4-(5-Hexynyloxy)-3-methyl-phenyl]-5-methoxy-4-[(1-naphthyl)methyl]-2-oxo-7-thia-1-azabicyclo[4.3.0]nona-3,5,8-triene-9-carboxylic acid], the MIC in test [1] (setting [6]) was 6 µM (≈ 3.31 µg/mL); in test [2], more than 100 µM.

On to `O=C(O)c1c(-c2ccc3[nH]ccc3c2)sc2c(C3CC3)c(Cc3cccc4ccccc34)cc(=O)n12` [Example 32, 5-Cyclopropyl-8-(1H-indol-5-yl)-4-[(1-naphthyl)methyl]-2-oxo-7-thia-1-azabicyclo[4.3.0]nona-3,5,8-triene-9-carboxylic acid], for which, in test [1] (setting [6]), the MIC stood at 200 µM (≈ 98.1 µg/mL). In addition, the MBC in test [1] (Staphylococcus aureus) is more than 400 µM; in test [4], 50 µM (≈ 24.5 µg/mL); in test [2], more than 400 µM.

In the case of `C=CCOc1ccc(-c2sc3c(OC)c(Cc4cccc5ccccc45)cc(=O)n3c2C(=O)O)cc1C` [Example 21, 8-[4-(Allyloxy)-3-methyl-phenyl]-5-methoxy-4-[(1-naphthyl)methyl]-2-oxo-7-thia-1-azabicyclo[4.3.0]nona-3,5,8-triene-9-carboxylic acid], the MIC in test [1] (setting [6]) was 19 µM (≈ 9.72 µg/mL); in test [2], more than 100 µM.

As for `CCCCCCn1cc(-c2sc3c(OC)c(Cc4cccc5ccccc45)cc(=O)n3c2C(=O)O)nn1` [Example 16, 8-(1-Hexyl-1H-1,2,3-triazol-4-yl)-5-methoxy-4-[(1-naphthyl)methyl]-2-oxo-7-thia-1-azabicyclo[4.3.0]nona-3,5,8-triene-9-carboxylic acid imidazole salt], the MIC in test [1] is reported as 200/nd uM.

Regarding `CCCOc1ccc(-c2sc3c(C4CC4)c(Cc4cccc5ccccc45)cc(=O)n3c2C(=O)O)cc1C` [Example 2, 5-Cyclopropyl-4-[(1-naphthyl)methyl]-2-oxo-8-(4-propoxy-3-methyl-phenyl)-7-thia-1-azabicyclo[4.3.0]nona-3,5,8-triene-9-carboxylic acid], the MIC stood at 27 µM (≈ 14.1 µg/mL) in test [1] (setting [6]) and 250 µM (≈ 131 µg/mL) in test [2]. Moreover, the MBC in test [1] (Staphylococcus aureus) was not below 50 µM; in test [3], 5 µM (≈ 2.62 µg/mL).

Take `COc1ccc(-c2sc3c(C4CC4)c(Cc4cccc5ccccc45)cc(=O)n3c2C(=O)O)cc1C` [Example 4, 5-Cyclopropyl-8-(4-methoxy-3-methyl-phenyl)-4-[(1-naphthyl)methyl]-2-oxo-7-thia-1-azabicyclo[4.3.0]nona-3,5,8-triene-9-carboxylic acid]: the MIC in test [1] (setting [6]) came out at 200 µM (≈ 99.1 µg/mL); in test [2] it was 250 µM (≈ 124 µg/mL). The same compound had an MBC in test [3] of 9 µM (≈ 4.46 µg/mL).

`CCCCCCOc1ccc(-c2sc3c(N)c(Cc4cccc5ccccc45)cc(=O)n3c2C(=O)O)cc1C` [Example 27, 5-Amino-8-[4-(hexyloxy)-3-methyl-phenyl]-4-[(1-naphthyl)methyl]-2-oxo-7-thia-1-azabicyclo[4.3.0]nona-3,5,8-triene-9-carboxylic acid]: the MIC in test [1] (setting [6]) came out at 25 µM (≈ 13.5 µg/mL).

On to `O=C(O)c1c(-c2ccsc2)sc2c(C3CC3)c(Cc3cccc4ccccc34)cc(=O)n12` [Example 34, 5-Cyclopropyl-4-[(1-naphthyl)methyl]-2-oxo-8-(3-thienyl)-7-thia-1-azabicyclo[4.3.0]nona-3,5,8-triene-9-carboxylic acid], for which the MBC was determined as 250 µM (≈ 114 µg/mL) in test [1] (Staphylococcus aureus), 400 µM (≈ 183 µg/mL) in test [5] and 25 µM (≈ 11.4 µg/mL) in test [4].

On to `O=C(O)c1c(-c2ccco2)sc2c(C3CC3)c(Cc3cccc4ccccc34)cc(=O)n12` [Example 35, 5-Cyclopropyl-8-(2-furyl)-4-[(1-naphthyl)methyl]-2-oxo-7-thia-1-azabicyclo[4.3.0]nona-3,5,8-triene-9-carboxylic acid], for which the MBC in test [4] was determined as 50 µM (≈ 22.1 µg/mL). This lies in the double-digit micromolar range.

On to `C=CCCCCOc1ccc(-c2sc3c(OC)c(Cc4cccc5ccccc45)cc(=O)n3c2C(=O)O)cc1C` [Example 25, 8-[4-(5-Hexenyloxy)-3-methyl-phenyl]-5-methoxy-4-[(1-naphthyl)methyl]-2-oxo-7-thia-1-azabicyclo[4.3.0]nona-3,5,8-triene-9-carboxylic acid], for which the MIC in test [1] (setting [6]) is 45 µM (≈ 24.9 µg/mL); in test [2], more than 100 µM.

With `COc1c(Cc2cccc3ccccc23)cc(=O)n2c(C(=O)O)c(-c3ccc(OCCC=C(C)C)c(C)c3)sc12` [Example 24, 5-Methoxy-8-[4-(4-methyl-3-pentenyloxy)-3-methyl-phenyl]-4-[(1-naphthyl)methyl]-2-oxo-7-thia-1-azabicyclo[4.3.0]nona-3,5,8-triene-9-carboxylic acid], the MIC in test [1] (setting [6]) was 45 µM (≈ 24.9 µg/mL); in test [2], more than 100 µM.

By MIC is commonly meant the smallest concentration in the dilution series that meets the test's criterion for growth inhibition. One may read the MBC as the smallest concentration meeting the test's criterion for killing.
